Reference: patent US9981969B2, “Imidazole derivatives and methods of use thereof for improving the pharmacokinetics of a drug” (MERCK SHARP & DOHME CORP., priority 2013, dated 2018)

Legend:
[1] = target: T1, CYP2C19 (Homo sapiens, UniProt P33261); assay: Cocktail assay for CYPs in human liver microsomes, mephenytoin 4′-hydroxylation (2C19); assay type: biochemical; settings: 30 μM mephenytoin, 10 min at 37° C.
T1 construct: 0.1 mg/mL protein human liver microsomes (BD Gentest); tissue BD Gentest; host or cells: human liver microsomes
T1 sequence (P33261 whole entry): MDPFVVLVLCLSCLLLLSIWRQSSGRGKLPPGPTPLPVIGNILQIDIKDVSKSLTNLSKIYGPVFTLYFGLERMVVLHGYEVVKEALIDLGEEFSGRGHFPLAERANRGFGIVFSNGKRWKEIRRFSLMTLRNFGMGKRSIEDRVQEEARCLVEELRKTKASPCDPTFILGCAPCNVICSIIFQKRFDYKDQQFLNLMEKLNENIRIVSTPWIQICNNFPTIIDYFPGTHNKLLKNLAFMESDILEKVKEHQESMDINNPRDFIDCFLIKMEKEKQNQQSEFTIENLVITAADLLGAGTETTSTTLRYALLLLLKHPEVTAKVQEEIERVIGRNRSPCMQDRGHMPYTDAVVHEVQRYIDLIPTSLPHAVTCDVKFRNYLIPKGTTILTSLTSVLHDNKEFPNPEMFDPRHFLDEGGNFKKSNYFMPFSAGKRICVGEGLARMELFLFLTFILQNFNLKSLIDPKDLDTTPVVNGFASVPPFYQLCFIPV
How it was run: (§1)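 Pooled human liver microsomes (0.1 mg/mL) with substrate cocktail (10 μM phenacetin, 5 μM diclofenac, 30 μM mephenytoin, 5 μM dextromethorphan), 1 mM NADPH, pH 7.4 phosphate, 10 min at 37 °C. Metabolites by LC/MS/MS; IC50 from % inhibition at 6 concentrations up to 10 μM.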

[2] = target: T2, CYP2C9 (Homo sapiens, UniProt P11712); assay: Cocktail assay for CYPs in human liver microsomes, diclofenac 4′-hydroxylation (2C9); assay type: biochemical; settings: 5 μM diclofenac, 10 min at 37° C.
T2 construct: 0.1 mg/mL protein human liver microsomes (BD Gentest); tissue BD Gentest; host or cells: human liver microsomes
T2 sequence (P11712 whole entry): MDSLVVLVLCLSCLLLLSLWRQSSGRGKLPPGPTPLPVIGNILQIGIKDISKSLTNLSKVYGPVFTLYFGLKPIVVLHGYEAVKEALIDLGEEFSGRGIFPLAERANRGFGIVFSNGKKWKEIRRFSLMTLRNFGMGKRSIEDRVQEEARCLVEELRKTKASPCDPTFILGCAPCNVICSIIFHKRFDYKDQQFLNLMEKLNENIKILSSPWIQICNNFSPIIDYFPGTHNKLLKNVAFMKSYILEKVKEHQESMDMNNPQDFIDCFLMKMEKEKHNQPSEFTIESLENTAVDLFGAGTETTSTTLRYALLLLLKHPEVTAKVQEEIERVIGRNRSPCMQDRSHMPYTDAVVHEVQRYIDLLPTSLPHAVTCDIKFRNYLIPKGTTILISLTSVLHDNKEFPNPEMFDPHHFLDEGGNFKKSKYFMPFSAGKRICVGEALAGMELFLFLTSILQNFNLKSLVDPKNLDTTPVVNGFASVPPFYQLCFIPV
How it was run: as §1

[3] = target: T3, CYP1A2 (Homo sapiens, UniProt P05177); assay: Cocktail assay for CYPs in human liver microsomes, phenacetin O-deethylation (1A2); assay type: biochemical; settings: 10 μM phenacetin, 10 min at 37° C.
T3 construct: 0.1 mg/mL protein human liver microsomes (BD Gentest); tissue BD Gentest; host or cells: human liver microsomes
T3 sequence (P05177 1-516): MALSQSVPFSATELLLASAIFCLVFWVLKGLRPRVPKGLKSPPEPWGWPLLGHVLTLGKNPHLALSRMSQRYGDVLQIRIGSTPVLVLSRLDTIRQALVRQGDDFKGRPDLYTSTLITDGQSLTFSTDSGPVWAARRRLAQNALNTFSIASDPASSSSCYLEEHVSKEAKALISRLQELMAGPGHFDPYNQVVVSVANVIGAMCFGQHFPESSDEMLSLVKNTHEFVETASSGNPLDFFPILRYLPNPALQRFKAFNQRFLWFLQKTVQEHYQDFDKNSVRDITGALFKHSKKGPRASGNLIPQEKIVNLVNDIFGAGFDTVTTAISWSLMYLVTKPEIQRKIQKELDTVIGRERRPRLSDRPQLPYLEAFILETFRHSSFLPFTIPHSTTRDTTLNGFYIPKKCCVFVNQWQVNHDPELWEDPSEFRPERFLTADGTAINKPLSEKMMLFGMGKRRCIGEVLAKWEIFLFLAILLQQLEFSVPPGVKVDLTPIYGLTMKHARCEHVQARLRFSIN
How it was run: as §1

[4] = target: T4, human CYP11B1 (Homo sapiens, UniProt P15538); assay: IC50 vs CYP11B1 by measurement of cortisol synthesis in V79 cells; assay type: cell-based; settings: V79 cells expressing human CYP11B1, 1500 nM RSS, cortisol HTRF
T4 construct: expressed in transfected cells
T4 sequence (P15538 25-503): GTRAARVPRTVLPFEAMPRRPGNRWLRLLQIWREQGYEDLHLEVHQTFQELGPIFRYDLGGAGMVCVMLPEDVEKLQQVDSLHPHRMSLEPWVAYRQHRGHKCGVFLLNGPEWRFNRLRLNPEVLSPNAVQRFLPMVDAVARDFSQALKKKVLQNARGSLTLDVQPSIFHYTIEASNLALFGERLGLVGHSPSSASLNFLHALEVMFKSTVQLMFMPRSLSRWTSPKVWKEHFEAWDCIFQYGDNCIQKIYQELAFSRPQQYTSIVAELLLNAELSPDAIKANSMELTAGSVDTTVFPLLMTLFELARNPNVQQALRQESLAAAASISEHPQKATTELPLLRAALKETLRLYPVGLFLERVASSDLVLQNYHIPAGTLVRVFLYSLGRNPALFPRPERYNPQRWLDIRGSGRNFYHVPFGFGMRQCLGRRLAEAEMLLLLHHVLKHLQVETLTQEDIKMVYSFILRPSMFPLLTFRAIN
How it was run: (§2)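 V79 cells stably expressing CYP11B1 or CYP11B2 were treated with test compound at 10 concentrations (e.g. 10000 down to 0.5 nM), with 1500 nM RSS (CYP11B1) or 750 nM DOC (CYP11B2) as substrate. After ~15 h at RT in the dark, supernatant cortisol/aldosterone was measured by HTRF and back-calculated from a standard curve. IC50 was taken as the inflection point of a four-parameter fit.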

[5] = target: T5, human CYP11B2 (Homo sapiens, UniProt P19099); assay: IC50 vs CYP11B2 by measurement of aldosterone synthesis in V79 cells; assay type: cell-based; settings: V79 cells expressing human CYP11B2, 750 nM DOC, aldosterone HTRF
T5 construct: expressed in transfected cells
T5 sequence (P19099 25-503): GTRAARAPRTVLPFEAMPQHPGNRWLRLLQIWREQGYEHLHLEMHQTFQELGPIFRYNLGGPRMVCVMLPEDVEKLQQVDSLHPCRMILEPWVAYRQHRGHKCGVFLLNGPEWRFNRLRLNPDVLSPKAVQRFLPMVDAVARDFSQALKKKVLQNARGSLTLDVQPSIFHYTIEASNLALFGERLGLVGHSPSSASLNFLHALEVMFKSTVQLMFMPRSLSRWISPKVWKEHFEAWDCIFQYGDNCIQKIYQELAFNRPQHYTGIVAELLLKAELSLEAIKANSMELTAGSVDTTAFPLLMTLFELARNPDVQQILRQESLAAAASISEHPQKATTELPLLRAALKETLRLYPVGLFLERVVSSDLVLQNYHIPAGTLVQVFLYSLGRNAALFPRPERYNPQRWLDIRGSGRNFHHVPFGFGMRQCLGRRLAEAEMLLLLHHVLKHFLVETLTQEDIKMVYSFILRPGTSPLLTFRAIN
How it was run: as §2

[6] = target: T6, CYP2D6 (Homo sapiens, UniProt P10635); assay: Cocktail assay for CYPs in human liver microsomes, dextromethorphan O-demethylation (2D6); assay type: biochemical; settings: 5 μM dextromethorphan, 10 min at 37° C.
T6 construct: 0.1 mg/mL protein human liver microsomes (BD Gentest); tissue BD Gentest; host or cells: human liver microsomes
T6 sequence (P10635 whole entry): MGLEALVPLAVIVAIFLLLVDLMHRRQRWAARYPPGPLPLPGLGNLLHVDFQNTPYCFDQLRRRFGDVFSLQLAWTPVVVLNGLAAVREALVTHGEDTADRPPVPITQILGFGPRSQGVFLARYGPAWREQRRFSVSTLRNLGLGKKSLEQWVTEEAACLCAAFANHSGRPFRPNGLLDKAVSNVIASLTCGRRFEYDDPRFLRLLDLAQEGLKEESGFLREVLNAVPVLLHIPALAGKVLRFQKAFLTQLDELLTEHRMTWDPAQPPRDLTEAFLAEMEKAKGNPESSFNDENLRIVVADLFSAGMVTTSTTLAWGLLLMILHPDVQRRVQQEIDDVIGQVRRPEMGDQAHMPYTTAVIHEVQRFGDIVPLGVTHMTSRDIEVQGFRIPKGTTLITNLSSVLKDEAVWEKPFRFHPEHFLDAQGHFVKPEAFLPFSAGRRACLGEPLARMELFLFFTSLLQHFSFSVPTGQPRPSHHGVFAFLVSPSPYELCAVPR
How it was run: as §1

[7] = target: T7, CYP3A4 (Homo sapiens, UniProt P08684); assay: Cocktail assay for CYPs in human liver microsomes, midazolam 1′-hydroxylation (3A4); assay type: biochemical; settings: 2 μM midazolam, 10 min at 37° C.
T7 construct: 0.1 mg/mL protein human liver microsomes (BD Gentest); tissue BD Gentest; host or cells: human liver microsomes
T7 sequence (P08684 whole entry): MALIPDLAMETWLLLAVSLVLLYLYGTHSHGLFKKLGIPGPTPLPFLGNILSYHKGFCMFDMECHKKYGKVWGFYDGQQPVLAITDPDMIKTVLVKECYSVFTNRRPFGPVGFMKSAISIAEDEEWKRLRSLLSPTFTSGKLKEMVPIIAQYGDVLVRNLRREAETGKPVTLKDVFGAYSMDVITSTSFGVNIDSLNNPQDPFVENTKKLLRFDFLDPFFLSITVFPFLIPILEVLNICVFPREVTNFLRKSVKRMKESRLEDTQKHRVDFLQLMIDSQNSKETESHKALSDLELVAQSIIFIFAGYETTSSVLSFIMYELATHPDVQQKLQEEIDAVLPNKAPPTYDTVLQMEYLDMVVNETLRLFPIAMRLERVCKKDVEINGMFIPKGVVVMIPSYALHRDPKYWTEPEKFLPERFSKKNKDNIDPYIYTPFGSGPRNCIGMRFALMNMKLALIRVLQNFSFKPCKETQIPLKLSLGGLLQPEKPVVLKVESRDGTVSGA
How it was run: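 CYP3A4 inhibition was measured in human liver microsomes (0.1 mg/mL protein) with 2 μM midazolam as the probe substrate, 1 mM NAPDH, 3.3 mM MgCl2 and 100 mM potassium phosphate buffer (pH 7.4), incubated 10 min at 37° C. After acetonitrile treatment, metabolite was quantified by LC/MS/MS against a tolbutamide internal standard. Percent inhibition at 6 concentrations gave IC50 by SigmaPlot non-linear regression.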

## C[C@@H](c1ccccc1C(C)(C)F)n1cncc1C(=O)N1CCC2NCCO[C@@H]2C1 (stereo partly drawn) [Compound 46]
[1]
  IC50: > 10 µM
[2]
  IC50: > 10 µM
[3]
  IC50: > 10 µM
[4]
  IC50: > 50 µM
[5]
  IC50: 23.1 µM
[6]
  IC50: 5.8 µM
[7]
  IC50: 0.0109 µM

## C[C@@H](c1ccccc1-c1ccc(F)cc1)n1cncc1C(=O)N1CCC(N2CC[C@H](O)[C@@H](F)C2)CC1 [Compound 13]
[1]
  IC50: > 10 µM
[2]
  IC50: > 10 µM
[3]
  IC50: > 10 µM
[4]
  IC50: 22.8 µM
[5]
  IC50: > 50 µM
[6]
  IC50: > 10 µM
[7]
  IC50: 0.0053 µM

## C[C@@H](c1ccccc1-c1ccc(F)cc1)n1cncc1C(=O)N1CCC(N2CCc3nccnc3C2)CC1 [Compound 28]
[1]
  IC50: > 10 µM
[2]
  IC50: > 10 µM
[3]
  IC50: > 10 µM
[4]
  IC50: 14.9 µM
[5]
  IC50: > 50 µM
[6]
  IC50: > 10 µM
[7]
  IC50: 0.0054 µM

## C[C@@H](c1ccccc1-c1ccc(F)cc1)n1cncc1C(=O)N1CCC(N2CCC[C@H](O)C2)CC1 [Compound 8]
[1]
  IC50: > 10 µM
[2]
  IC50: > 10 µM
[3]
  IC50: > 10 µM
[4]
  IC50: 21 µM
[5]
  IC50: > 50 µM
[6]
  IC50: > 10 µM
[7]
  IC50: 0.0056 µM

## COCc1ccccc1-c1ccccc1[C@H](C)n1cncc1C(=O)N1CCC2NCCO[C@@H]2C1 (stereo partly drawn) [Compound 35]
[1]
  IC50: > 10 µM
[2]
  IC50: > 10 µM
[3]
  IC50: > 10 µM
[4]
  IC50: 20.4 µM
[5]
  IC50: 25.8 µM
[6]
  IC50: 9.1 µM
[7]
  IC50: 0.0055 µM

## C[C@@H](c1ccccc1-c1ccccc1)n1cncc1C(=O)N1CCC2NCCO[C@@H]2C1 (stereo partly drawn) [Compound 34]
[1]
  IC50: > 10 µM
[2]
  IC50: > 10 µM
[3]
  IC50: > 10 µM
[4]
  IC50: 21.2 µM
[5]
  IC50: > 50 µM
[6]
  IC50: 8.05 µM
[7]
  IC50: 0.0068 µM

## C[C@@H](c1ccccc1-c1ccc(F)cc1)n1cncc1C(=O)N1CCC(N2CCC(O)CC2)CC1 [Compound 1]
[1]
  IC50: > 10 µM
[2]
  IC50: > 10 µM
[3]
  IC50: > 10 µM
[4]
  IC50: 33.5 µM
[5]
  IC50: > 50 µM
[6]
  IC50: 6.55 µM
[7]
  IC50: 0.0068 µM

## C[C@@H](c1ccccc1-c1ccc(F)cc1)n1cncc1C(=O)N1CCC(N2CCNC(=O)CC2)CC1 [Compound 21]
[1]
  IC50: > 10 µM
[2]
  IC50: > 10 µM
[3]
  IC50: > 10 µM
[4]
  IC50: > 50 µM
[5]
  IC50: > 50 µM
[6]
  IC50: > 10 µM
[7]
  IC50: 0.0068 µM

## CCc1nnc2n1CCN(C(=O)c1cncn1[C@@H](C)c1ccccc1-c1ccc(F)cc1)C2 [Compound 7, (S)-(3-ethyl-5,6-dihydro-[1,2,4]triazolo[4,3-a]pyrazin-7(8H)-yl)(1-(1-(4′-fluoro-[1,1′-biphenyl]-2-yl)ethyl)-1H-imidazol-5-yl)methanone]
[1]
  IC50: > 10 µM
[2]
  IC50: > 10 µM
[3]
  IC50: > 10 µM
[4]
  IC50: 45.5 µM
[5]
  IC50: > 50 µM
[6]
  IC50: > 10 µM
[7]
  IC50: 0.0057 µM

## C[C@@H](c1ccccc1-c1ccc(F)cc1)n1cncc1C(=O)N1CC[C@@H](N2CCC(O)CC2)[C@@H](F)C1 [Compound 2]
[1]
  IC50: > 10 µM
[2]
  IC50: > 10 µM
[3]
  IC50: > 10 µM
[4]
  IC50: 24.3 µM
[5]
  IC50: 31 µM
[6]
  IC50: > 10 µM
[7]
  IC50: 0.005 µM

## C[C@@H](c1ccccc1-c1ccc(F)cc1)n1cncc1C(=O)N1CCC(F)(CN2CCOCC2)CC1 [Compound 49]
[1]
  IC50: 9.54 µM
[2]
  IC50: > 10 µM
[3]
  IC50: > 10 µM
[4]
  IC50: 6.03 µM
[5]
  IC50: 36.3 µM
[6]
  IC50: ≥ 10 µM
[7]
  IC50: 0.0037 µM

## C[C@@H](c1ccccc1-c1ccc(F)cc1)n1cncc1C(=O)N1CCN2C[C@H](O)C[C@H]2C1 [Compound 6, (1-((S)-1-(4′-fluoro-[1,1′-biphenyl]-2-yl)ethyl)-1H-imidazol-5-yl)((7R,8aS)-7-hydroxyhexahydro-pyrrolo[1,2-a]pyrazin-2(1H)-yl)methanone]
[1]
  IC50: > 10 µM
[2]
  IC50: > 10 µM
[3]
  IC50: > 10 µM
[4]
  IC50: 29.7 µM
[5]
  IC50: > 50 µM
[6]
  IC50: > 10 µM
[7]
  IC50: 0.0089 µM

## C[C@@H](c1ccccc1-c1ccc(F)cc1)n1cncc1C(=O)N1CCC(N2C[C@H](O)[C@@H](F)C2)CC1 [Compound 16]
[1]
  IC50: > 10 µM
[2]
  IC50: > 10 µM
[3]
  IC50: > 10 µM
[4]
  IC50: 10.2 µM
[5]
  IC50: 24.3 µM
[6]
  IC50: > 10 µM
[7]
  IC50: 0.0043 µM

## CO[C@@H]1CN(C2CCN(C(=O)c3cncn3[C@@H](C)c3ccccc3-c3ccc(F)cc3)CC2)C[C@H]1O [Compound 23]
[1]
  IC50: > 10 µM
[2]
  IC50: > 10 µM
[3]
  IC50: > 10 µM
[4]
  IC50: 26.3 µM
[5]
  IC50: > 50 µM
[6]
  IC50: 9.72 µM
[7]
  IC50: 0.0034 µM

## C[C@@H](c1ccccc1-c1ccc(F)cc1)n1cncc1C(=O)N1CCC(N2CCC(F)C(O)C2)CC1 (stereo partly drawn) [Compound 19]
[1]
  IC50: > 10 µM
[2]
  IC50: > 10 µM
[3]
  IC50: > 10 µM
[4]
  IC50: 32.5 µM
[5]
  IC50: > 50 µM
[6]
  IC50: > 10 µM
[7]
  IC50: 0.0057 µM
